Assays:
[1] = target: T1, hKDR (Homo sapiens, UniProt P35968); experiment: Cerep LANCE kinase assay hKDR (S1 assay 32); assay type: biochemical; details: for hKDR LANCE IC50/EC50: assay number 32
T1 construct: purchased Cerep (LANCE kinase assay platform, contract assay)

[2] = target: T2, hJAK2 (Homo sapiens, UniProt O60674); experiment: Cerep LANCE kinase assay hJAK2 (S1 assay 33); assay type: biochemical; details: for hJAK2 LANCE IC50/EC50: assay number 33
T2 construct: purchased Cerep (LANCE kinase assay platform, contract assay)
T2 sequence (O60674 whole entry): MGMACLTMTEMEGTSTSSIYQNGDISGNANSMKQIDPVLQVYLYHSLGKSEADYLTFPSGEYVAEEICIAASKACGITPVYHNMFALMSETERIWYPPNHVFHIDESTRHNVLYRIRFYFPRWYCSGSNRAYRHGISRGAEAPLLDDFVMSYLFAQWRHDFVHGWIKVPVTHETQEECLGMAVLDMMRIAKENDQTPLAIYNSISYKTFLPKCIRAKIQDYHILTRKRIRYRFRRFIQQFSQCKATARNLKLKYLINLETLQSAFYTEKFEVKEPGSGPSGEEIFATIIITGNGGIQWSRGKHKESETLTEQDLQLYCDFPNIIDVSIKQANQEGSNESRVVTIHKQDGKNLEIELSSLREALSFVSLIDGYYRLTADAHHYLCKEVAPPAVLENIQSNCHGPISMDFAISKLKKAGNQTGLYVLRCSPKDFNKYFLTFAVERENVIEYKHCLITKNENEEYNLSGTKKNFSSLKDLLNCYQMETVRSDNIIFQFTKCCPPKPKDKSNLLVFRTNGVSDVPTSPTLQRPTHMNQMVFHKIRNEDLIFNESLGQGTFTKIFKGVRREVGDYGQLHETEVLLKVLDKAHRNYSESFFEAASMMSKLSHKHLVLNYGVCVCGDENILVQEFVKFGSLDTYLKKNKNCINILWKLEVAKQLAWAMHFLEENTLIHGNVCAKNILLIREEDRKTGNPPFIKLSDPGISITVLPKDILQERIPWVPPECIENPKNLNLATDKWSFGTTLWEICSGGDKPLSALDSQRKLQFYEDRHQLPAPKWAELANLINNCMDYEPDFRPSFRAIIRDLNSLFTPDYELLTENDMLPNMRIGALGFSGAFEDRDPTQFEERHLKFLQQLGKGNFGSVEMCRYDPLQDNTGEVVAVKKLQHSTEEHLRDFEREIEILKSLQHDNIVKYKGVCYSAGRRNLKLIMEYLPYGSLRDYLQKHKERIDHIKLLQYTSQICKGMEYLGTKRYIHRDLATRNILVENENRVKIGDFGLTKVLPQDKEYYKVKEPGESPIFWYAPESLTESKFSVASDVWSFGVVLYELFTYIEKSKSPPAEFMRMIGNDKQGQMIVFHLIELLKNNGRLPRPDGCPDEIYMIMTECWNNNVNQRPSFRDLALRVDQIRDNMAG

[3] = test system: HeLa cells; experiment: cells; assay type: cell-based; details: for Hela CellCycMod PI 2N IC50/EC50: assay number 14; for Hela CellCycMod PI S Phase IC50/EC50: assay number 15; for Hela CellCycMod PI 4N IC50/EC50: assay number 16; for Hela CellCycMod PI MI IC50/EC50: assay number 17; for Hela CellCycMod PI Cell Number IC50/EC50: assay number 18
[4] = test system: alkaline phosphatase (ALP) activity in C2C12 cells; assay type: cell-based; details: concentration response; for WntCondMedia_Alk Phos C2C12 IC50/EC50: assay number 6
[5] = target: T3, hGSK3b (Homo sapiens, UniProt P49841); experiment: Cerep LANCE kinase assay hGSK3b (S1 assay 34); assay type: biochemical; details: for hGSK3b LANCE IC50/EC50: assay number 34
T3 construct: purchased Cerep (LANCE kinase assay platform, contract assay)
T3 sequence (P49841 whole entry): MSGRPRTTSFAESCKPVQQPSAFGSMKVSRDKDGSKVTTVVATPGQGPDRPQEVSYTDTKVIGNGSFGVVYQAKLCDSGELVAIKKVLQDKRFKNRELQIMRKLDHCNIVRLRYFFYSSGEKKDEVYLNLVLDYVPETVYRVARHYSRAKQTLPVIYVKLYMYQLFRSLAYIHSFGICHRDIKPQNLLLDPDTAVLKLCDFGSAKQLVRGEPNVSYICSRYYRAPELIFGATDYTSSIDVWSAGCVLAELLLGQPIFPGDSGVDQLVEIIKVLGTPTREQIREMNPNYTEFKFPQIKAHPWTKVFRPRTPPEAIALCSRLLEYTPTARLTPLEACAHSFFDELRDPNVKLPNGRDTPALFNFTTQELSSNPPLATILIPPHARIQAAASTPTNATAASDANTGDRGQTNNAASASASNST

[6] = target: T4, hp70S6K1 (RPS6KB1) (Homo sapiens, UniProt P23443); experiment: Cerep LANCE kinase assay hp70S6K1 (S1 assay 31); assay type: biochemical; details: for hp70S6K1 LANCE IC50/EC50: assay number 31
T4 construct: purchased Cerep (LANCE kinase assay platform, contract assay)
T4 sequence (P23443 whole entry): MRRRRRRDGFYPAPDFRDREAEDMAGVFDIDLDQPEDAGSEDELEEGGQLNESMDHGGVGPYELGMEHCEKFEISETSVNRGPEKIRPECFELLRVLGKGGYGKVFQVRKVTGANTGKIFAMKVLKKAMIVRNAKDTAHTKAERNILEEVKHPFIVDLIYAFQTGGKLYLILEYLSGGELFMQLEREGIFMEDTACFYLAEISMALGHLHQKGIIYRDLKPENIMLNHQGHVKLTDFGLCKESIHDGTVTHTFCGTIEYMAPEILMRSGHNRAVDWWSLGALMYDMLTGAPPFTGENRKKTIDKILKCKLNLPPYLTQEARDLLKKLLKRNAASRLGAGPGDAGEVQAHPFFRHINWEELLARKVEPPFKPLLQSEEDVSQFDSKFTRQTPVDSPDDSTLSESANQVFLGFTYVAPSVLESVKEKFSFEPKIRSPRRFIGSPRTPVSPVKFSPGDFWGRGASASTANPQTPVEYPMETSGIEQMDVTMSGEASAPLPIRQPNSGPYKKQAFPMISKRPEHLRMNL

[7] = test system: endothelial tube formation in co-cultures of ECFCs and ADSCs treated with VEGF; experiment: cells; assay type: cell-based, human
[8] = target: T5, hFLT3 (Homo sapiens, UniProt P36888); experiment: Cerep LANCE kinase assay hFLT3 (S1 assay 35); assay type: biochemical; details: for hFLT3 LANCE IC50/EC50: assay number 35
T5 construct: purchased Cerep (LANCE kinase assay platform, contract assay)
T5 sequence (P36888 27-993): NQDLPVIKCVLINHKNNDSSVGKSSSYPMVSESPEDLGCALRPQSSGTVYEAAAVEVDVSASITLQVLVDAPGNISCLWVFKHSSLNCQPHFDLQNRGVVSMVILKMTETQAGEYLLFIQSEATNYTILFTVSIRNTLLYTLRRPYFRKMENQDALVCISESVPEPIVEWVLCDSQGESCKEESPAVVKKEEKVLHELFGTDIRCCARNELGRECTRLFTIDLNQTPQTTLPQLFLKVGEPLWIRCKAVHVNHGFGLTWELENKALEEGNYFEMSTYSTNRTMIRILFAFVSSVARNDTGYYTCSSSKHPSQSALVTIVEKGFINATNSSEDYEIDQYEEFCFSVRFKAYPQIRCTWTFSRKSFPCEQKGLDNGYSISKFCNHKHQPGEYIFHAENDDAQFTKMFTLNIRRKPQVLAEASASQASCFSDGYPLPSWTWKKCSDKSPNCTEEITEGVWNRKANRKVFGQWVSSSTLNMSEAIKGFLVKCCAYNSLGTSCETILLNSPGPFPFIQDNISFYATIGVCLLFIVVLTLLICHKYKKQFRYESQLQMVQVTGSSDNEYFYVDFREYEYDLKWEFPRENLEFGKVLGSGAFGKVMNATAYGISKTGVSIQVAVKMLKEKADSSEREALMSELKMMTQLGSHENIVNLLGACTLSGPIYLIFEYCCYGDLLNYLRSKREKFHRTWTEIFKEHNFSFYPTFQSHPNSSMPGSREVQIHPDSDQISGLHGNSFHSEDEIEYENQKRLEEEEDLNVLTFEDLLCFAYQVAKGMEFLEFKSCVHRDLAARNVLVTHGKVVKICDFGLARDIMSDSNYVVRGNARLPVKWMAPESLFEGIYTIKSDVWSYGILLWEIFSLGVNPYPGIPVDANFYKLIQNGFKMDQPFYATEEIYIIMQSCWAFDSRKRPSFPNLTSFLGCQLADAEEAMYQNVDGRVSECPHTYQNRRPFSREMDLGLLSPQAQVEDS

[9] = test system: ECFC/ADSC co-culture cell nuclei number
[10] = test system: nuclear β-catenin in C2C12 cells; experiment: cells; assay type: cell-based; details: concentration response; for WntCondMedia_bCatenin C2C12 IC50/EC50: assay number 5

T1 sequence (P35968 20-1356): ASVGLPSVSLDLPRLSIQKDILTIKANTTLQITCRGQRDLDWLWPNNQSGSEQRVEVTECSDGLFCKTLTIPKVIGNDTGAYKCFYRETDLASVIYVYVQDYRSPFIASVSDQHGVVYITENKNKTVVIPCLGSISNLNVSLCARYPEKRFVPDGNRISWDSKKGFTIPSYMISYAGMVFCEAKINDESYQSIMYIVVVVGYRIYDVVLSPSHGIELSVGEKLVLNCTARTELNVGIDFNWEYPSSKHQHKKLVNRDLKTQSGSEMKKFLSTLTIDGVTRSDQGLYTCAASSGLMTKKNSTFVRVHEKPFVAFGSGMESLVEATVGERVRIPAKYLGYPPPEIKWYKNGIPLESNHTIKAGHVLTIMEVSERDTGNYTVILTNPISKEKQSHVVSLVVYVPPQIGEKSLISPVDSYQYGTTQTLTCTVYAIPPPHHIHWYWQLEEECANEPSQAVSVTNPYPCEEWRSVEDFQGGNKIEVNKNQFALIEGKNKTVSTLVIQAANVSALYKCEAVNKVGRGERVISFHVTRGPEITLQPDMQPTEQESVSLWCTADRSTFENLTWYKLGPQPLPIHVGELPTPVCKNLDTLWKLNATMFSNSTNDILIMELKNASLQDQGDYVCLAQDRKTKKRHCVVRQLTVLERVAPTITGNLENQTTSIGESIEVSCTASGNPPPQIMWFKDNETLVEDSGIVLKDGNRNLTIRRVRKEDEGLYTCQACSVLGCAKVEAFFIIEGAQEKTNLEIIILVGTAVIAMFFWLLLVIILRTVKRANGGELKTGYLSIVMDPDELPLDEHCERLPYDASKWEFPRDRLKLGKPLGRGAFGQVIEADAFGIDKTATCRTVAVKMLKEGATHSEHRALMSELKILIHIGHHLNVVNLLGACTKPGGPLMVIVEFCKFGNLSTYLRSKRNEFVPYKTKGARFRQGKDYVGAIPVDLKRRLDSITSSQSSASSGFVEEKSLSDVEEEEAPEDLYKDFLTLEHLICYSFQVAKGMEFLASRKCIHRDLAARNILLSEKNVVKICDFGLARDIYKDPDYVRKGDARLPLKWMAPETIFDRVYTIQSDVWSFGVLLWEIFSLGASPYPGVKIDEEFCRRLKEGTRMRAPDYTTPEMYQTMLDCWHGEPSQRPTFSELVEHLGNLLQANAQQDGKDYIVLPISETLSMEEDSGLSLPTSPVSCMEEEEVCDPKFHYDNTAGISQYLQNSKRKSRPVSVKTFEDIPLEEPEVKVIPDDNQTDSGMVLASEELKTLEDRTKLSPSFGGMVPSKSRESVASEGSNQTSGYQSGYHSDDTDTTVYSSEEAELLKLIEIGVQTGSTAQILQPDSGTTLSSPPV

Row | SMILES | hKDR LANCE IC50/EC50 [1] | hJAK2 LANCE IC50/EC50 [2] | Hela CellCycMod PI 2N IC50/EC50 ([3]; 2N) | Hela CellCycMod PI 4N IC50/EC50 ([3]; 4N) | Hela CellCycMod PI MI IC50/EC50 ([3]; MI) | Hela CellCycMod PI Cell Number IC50/EC50 [3] | WntCondMedia_Alk Phos C2C12 IC50/EC50 [4] | hGSK3b LANCE IC50/EC50 [5] | hp70S6K1 LANCE IC50/EC50 [6] | VEGF_ADSC\ECFC Angio CD31 TubeArea IC50/EC50 [7] | hFLT3 LANCE IC50/EC50 [8] | VEGF_ADSC\ECFC Angio Hoechst NucArea IC50/EC50 [9] | WntCondMedia_bCatenin C2C12 IC50/EC50 [10] | further results
1 | CC(C)(C)C(=O)OCOP(=O)(COCCn1cnc2c(N)ncnc21)OCOC(=O)C(C)(C)C [NCGC00164624-02] | > 20 µM | > 20 µM | > 10 µM | > 10 µM | > 10 µM | 0.134 µM | 0.3874 µM | > 20 µM | > 20 µM | 0.3913 µM | > 20 µM | > 10 µM | 0.7043 µM | Hela CellCycMod PI S Phase IC50/EC50 [3]: 0.0608 µM
2 | CC[C@@]1(O)C(=O)OCc2c1cc1n(c2=O)Cc2c-1nc1ccccc1c2/C=N/OC(C)(C)C [NCGC00253588-01] | > 20 µM | > 20 µM | – | > 10 µM | > 10 µM | 0.0022 µM | 0.0032 µM | > 20 µM | > 20 µM | 0.002 µM | > 20 µM | 0.7994 µM | 1.1571 µM | –
3 | Cc1cc(O)c2ccccc2c1O [NCGC00253592-01] | 18.36 µM | > 20 µM | > 10 µM | > 10 µM | > 10 µM | 2.4571 µM | 1.7548 µM | 19.11 µM | > 20 µM | 4.8933 µM | > 20 µM | 9.854 µM | 4.3946 µM | Hela CellCycMod PI S Phase IC50/EC50 [3]: > 10 µM
4 | COC(=O)c1nc(Cl)c(Cl)nc1N [NCGC00253704-01] | – | – | – | – | – | – | – | – | – | – | – | – | – | IC50/EC50, hKDR LANCE (assay number 32) [1]: > 20 µM; IC50/EC50, hJAK2 LANCE (assay number 33) [2]: > 20 µM; IC50/EC50, Hela CellCycMod PI 2N (assay number 14) ([3]; 2N): 0.3341 µM; IC50/EC50, Hela CellCycMod PI 4N (assay number 16) ([3]; 4N): 0.5115 µM; IC50/EC50, Hela CellCycMod PI Cell Number (assay number 18) ([3]; Cell Number): 0.4075 µM; IC50/EC50, Hela CellCycMod PI MI (assay number 17) ([3]; MI): 0.8681 µM; IC50/EC50, Hela CellCycMod PI S Phase (assay number 15) ([3]; S Phase): > 10 µM; IC50/EC50, WntCondMedia_Alk Phos C2C12 (assay number 6) [4]: 0.1565 µM; IC50/EC50, hGSK3b LANCE (assay number 34) [5]: > 20 µM; IC50/EC50, hp70S6K1 LANCE (assay number 31) [6]: > 20 µM; IC50/EC50, VEGF_ADSC\ECFC Angio CD31 TubeArea (assay number 2) [7]: 0.8652 µM; IC50/EC50, hFLT3 LANCE (assay number 35) [8]: 2.86 µM; IC50/EC50, VEGF_ADSC\ECFC Angio Hoechst NucArea (assay number 3) [9]: 6.796 µM; IC50/EC50, WntCondMedia_bCatenin C2C12 (assay number 5) [10]: 0.3085 µM
5 | Cc1ccccc1C(=O)Nc1ccc(C(=O)N2CCCC(N(C)C)c3ccccc32)cc1 (stereo not drawn) [NCGC00262931-01] | > 20 µM | > 20 µM | > 10 µM | > 10 µM | 3.4063 µM | 2.9147 µM | 9.9815 µM | > 20 µM | > 20 µM | > 10 µM | > 20 µM | > 10 µM | 4.5593 µM | –
6 | CC[C@]1(O)C[C@H]2CN(CCc3c([nH]c4ccccc34)[C@@](C(=O)OC)(c3cc4c(cc3OC)N(C=O)[C@H]3[C@@](O)(C(=O)OC)[C@H](OC(C)=O)[C@]5(CC)C=CCN6CC[C@]43[C@@H]65)C2)C1 [NCGC00263543-01] | > 20 µM | > 20 µM | 0.0062 µM | 0.0059 µM | 0.0061 µM | 0.0065 µM | 0.0051 µM | > 20 µM | > 20 µM | 0.0065 µM | > 20 µM | > 10 µM | 0.004 µM | –
7 | CC[C@@H]([C@H](C)O)n1ncn(-c2ccc(N3CCN(c4ccc(OC[C@@H]5CO[C@@](Cn6cncn6)(c6ccc(F)cc6F)C5)cc4)CC3)cc2)c1=O [NCGC00274060-01] | > 20 µM | > 20 µM | > 10 µM | > 10 µM | > 10 µM | > 10 µM | 1.6342 µM | > 20 µM | > 20 µM | 6.461 µM | > 20 µM | > 10 µM | 5.2923 µM | –

— PMC4503722, “Novel Phenotypic Outcomes Identified for a Public Collection of Approved Drugs from a Publicly Accessible Panel of Assays” (PLoS ONE, 2015)
